Tests used:
YTHDF1 (361-559) = target: T1, YTHDF1 (361-559) (Homo sapiens, UniProt Q9BYJ9); assay: NMR CPMG binding experiment; conditions: 200 μM SAA; 5 μM, 10 μM and 20 μM YTHDF1
T1 construct: GST (N, cleaved yes); made in house; host or cells: E. coli BL21 (DE3)
T1 sequence (Q9BYJ9 with tags, fused parts or gaps): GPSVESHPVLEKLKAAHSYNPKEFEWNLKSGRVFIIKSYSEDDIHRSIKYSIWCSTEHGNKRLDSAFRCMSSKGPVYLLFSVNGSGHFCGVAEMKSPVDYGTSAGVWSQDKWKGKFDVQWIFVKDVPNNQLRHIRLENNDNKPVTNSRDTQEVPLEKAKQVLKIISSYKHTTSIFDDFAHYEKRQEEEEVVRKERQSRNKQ
Procedure: NMR CPMG experiment was performed at 25° C. using Bruker Avance III spectrometer (600 MHz proton frequency) with a cryogenically cooled probe (Bruker biospin, Germany). YTHDF1 (361-559) was diluted to 20 μM, 10 μM and 5 μM in phosphate buffer (20 mM NaH2PO4, 20 mM Na2HPO4, 150 mM NaCl, pH 7.4, D2O). […] The solvent-suppressed 1D ^1H CPMG was obtained via the pulse sequence (RD-90°-(τ-180°-τ) n-ACQ). In the pre-saturation procedure, a 54.78 dB pulse in 4 s duration of the recycle delay (RD) was applied to eliminate water resonance. Then, the 900 pulse length was modulated to 11.82 μs approximately. And at last, a total of 4 dummy scans and 64 free induction decays (FIDs) were collected into […] acquisition points, covering a spectral width of 12 kHz (20 ppm) with the acquisition time (ACQ) of 2.73 s.
Then, qualitative and quantitative experiments were performed to explore the binding between SAA and YTHDF1. Firstly, nuclear magnetic resonance (NMR) Carr-Purcell-Meiboom-Gill (CPMG) experiments were conducted.

YTHDF1 mutant F480A = target: T2, YTHDF1 mutant F480A (Homo sapiens, UniProt Q9BYJ9, F480A); assay: FP assay with YTHDF1 mutant F480A; assay type: binding
T2 construct: GST (N, cleaved yes); made in house; host or cells: E. coli BL21 (DE3)
Procedure: The protein YTHDF1 (361-559) (SEQ ID NO: 2) and its mutants (SEQ ID NOs: 4-13) were cloned into pGEx-6P-1 vector (obtained from YouBio Co, Ltd, Catalog NO: VT1258), and the His-YTHDF1 (361-559) (SEQ ID NO: 3) used in AlphaScreen Assay was cloned into modified pET28a vector (obtained from YouBio Co, Ltd, Catalog NO: VT1207). The vectors were transformed into E. coli BL21 (DE3) cells and cultured at 37° C. When OD value reached 0.6˜0.8, 1 mM Isopropyl-β-D-thiogalactopyranoside was added to overexpress the protein at 16° C. overnight. […] Then, the proteins were further purified via cation exchange (HiTrap SP, GE Healthcare) and finally through a Superdex 75 10/300 column (GE Healthcare). At last, the purified YTHDF1(361-559) and the mutants were kept in buffer which contains 20 mM Hepes (pH 7.4) and 200 mM NaCl. For His-YTHDF1 (361-559), the protein was purified via Ni-NTA chromatography (HisTrap FF, GE Healthcare), followed by cation exchange and Superdex 75 10/300 column in sequence. And the obtained protein was kept in the buffer with the same ingredients.
All of the YTHDF1 (361-559), the 5′-FAM labeled m^6A-containing mRNA (5′-FAM-[…] (m^6A) CUGUG-3′, SEQ ID NO: 14) and the candidate compounds were diluted with assay buffer (20 mM Hepes (pH 7.4), 50 mM NaCl, 0.01% (v/v) tween 20, 5% (v/v) glycerol). […] At last, the mixtures were measured by Envision Readers (PerkinElmer). […]

[1] = tested on: tumor infiltrating T cells; assay: Tumor infiltrating T cell function (PMA/ionomycin, intracellular staining); assay type: in vivo, mouse; conditions: B16-OVA bearing mice, PMA and ionomycin stimulation
Procedure: Tumor infiltrating leukocytes were resuspended by RPMI 1640 medium at 5×10^6 per mL in 96-well plates. Phorbol-12-myristate-13-acetate (PMA) (2.5 μg/mL) and ionomycin (0.5 μg/mL) were used to stimulate T cells together with brefeldin A were added to the culture medium for 2 hours at 37° C. Cell concentration of total lymphocytes from draining lymph node was adjusted to 5×10^6 per mL in 96-well plate. 1 μg/mL OT-1 (OVA 257-264) peptide was added to the wells and stimulated for 96 hours. Samples were stained with CD45 and CD8 on ice for 30 min. Intracellular staining was performed to quantify IFN-γ and granzyme B production.
To explore the effects of SAA treatment on T cell function, SAA treated B16-OVA bearing mice were sacrificed to investigate tumor infiltrating T cell (TILs) function. Firstly, Phorbol-12-myristate-13-acetate (PMA) and ionomycin were used to nonspecifically stimulate tumor infiltrating T cell, then intracellular staining was performed to quantify cytokine (e.g., IFN-γ, granzyme B) production by FACS.

B16-OVA tumor = B16-OVA tumor growth, SAA with anti-PD-L1 antibody; assay type: in vivo, mouse; conditions: 5×10^5 B16-OVA; 10 μM SAA day 9 and 11; 100 ug anti-PD-L1 antibody day 9
Procedure: For B6 mice tumor growth, 5×10^5 B16-OVA or 1×10^6 E.G7-OVA tumor cells were inoculated subcutaneously (s.c.) into the flank of mice. Tumor length (a) and width (b) was measured every two days and tumor volume was calculated by the formula ab^2/2. For the inhibitor treatment, 10 μM SAA or DMSO was injected intraperitoneally (i.p.) on day 9 and 11 after tumor inoculation. For other mice model (rag1^−/− and Ythdf1 conditional knockout), times and dose of inhibitor treatment was the same. For α-PD-L1 and SAA combination treatment, 5×10^5 B16-OVA tumor cells were inoculated subcutaneously into the flank of mice. 100 μg α-PD-L1 antibody (clone 10F.9G2) or rat immunoglobulin were administered at day 9 after tumor inoculation. 10 μM SAA or DMSO was administered in the same way on day 9 and 11 after tumor injection.
Wild-type mice were injected subcutaneously with 5×10^5 B16-OVA cells. 10 μM SAA was injected to each mouse on day 9 and day 11. Mice were also treated with 100 ug anti-PD-L1 antibody on day 9. Tumor growth was monitored over time.

T2 sequence (Q9BYJ9 with tags, fused parts or gaps F480A): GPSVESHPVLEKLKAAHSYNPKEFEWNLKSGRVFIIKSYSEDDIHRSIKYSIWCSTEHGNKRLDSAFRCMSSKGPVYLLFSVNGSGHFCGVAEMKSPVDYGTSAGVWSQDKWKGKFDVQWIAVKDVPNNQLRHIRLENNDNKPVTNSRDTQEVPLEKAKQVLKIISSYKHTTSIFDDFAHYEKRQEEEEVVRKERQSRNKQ

O=C(/C=C/c1ccc(O)c(O)c1/C=C/c1ccc(O)c(O)c1)O[C@H](Cc1ccc(O)c(O)c1)C(=O)O [SAA, Salvianolic Acid A]
CPMG signal of the compound on addition of YTHDF1 (YTHDF1 (361-559)): signal decreased | inhibitory activity against mutant binding to m6A versus wildtype (YTHDF1 mutant F480A): significantly weaker than that against wildtype YTHDF1 | cytokine (IFN-γ, granzyme B) production by tumor infiltrating T cells [1]: higher level of cytokines than DMSO group | B16-OVA tumor growth (B16-OVA tumor): partially inhibit

Source: patent publication US20240033244A1, “COMPOSITIONS AND METHODS FOR INHIBITING YTHDF1” (SHANGHAI INSTITUTE OF MATERIA MEDICA, CHINESE ACADEMY OF …, priority 2020, published 2024)
